Measurements from patent publication US20100168093A1, “SUBSTITUTED 3-AMINO-4 -HYDROXY PYRROLIDINES COMPOUNDS, THEIR PREPARATION AND USE AS MEDICAMENTS” (priority 2006, published 2010).

What was measured:
Sigma-1 receptor = target: T1, Sigma-1 receptor (Cavia porcellus, UniProt Q60492); assay: Sigma-1 receptor binding assay, [3H](+)-pentazocine displacement in brain membranes; details: 2.5 h, compound at 10^−7 M; [3H](+)-pentazocine 0.5 nM; guinea pig brain membranes; non-specific binding defined by 1 μM haloperidol; read-out: Percent Replacement Sigma-1 receptor [10^−7 M]
T1 construct: guinea pig brains were homogenized; from tissue; host or cells: guinea pig brain membranes
Experimental: Some representative compounds of the invention were tested for their activity as sigma (sigma-1) inhibitors. The following protocol was followed:
Brain membrane preparation and binding assays for the σ1-receptor were performed as described (DeHaven-Hudkins et al., 1992, Eur. J. Pharmacol. 227, 371-378.) with some modifications. In brief, guinea pig brains were homogenized in 10 vols. (w/v) of Tris-HCl 50 mM 0.32 M sucrose, pH 7.4, with a Kinematica Polytron PT 3000 at 15000 r.p.m. for 30 s. The homogenate was centrifuged at 1000g for 10 min at 4° C. and the supematants collected and centrifuged again at 48000 g for 15 min at 4° C. The pellet was resuspended in 10 volumes of Tris-HCl buffer (50 mM, pH 7.4), incubated at 37° C. for 30 min, and centrifuged at 48000 g for 20 min at 4° C. Following this, the pellet was resuspended in fresh Tris-HCl buffer (50 mM, pH 7.4) and stored on ice until use.
Each assay tube contained 10 μL of [^3H](+)-pentazocine (final concentration of 0.5 nM), 900 μL of the tissue suspension to a final assay volume of 1 mL and a final tissue concentration of approximately 30 mg tissue net weight/mL. Non-specific binding was defined by addition of a final concentration of 1 μM haloperidol. All tubes were incubated at 37° C. for 150 min before termination of the reaction by rapid filtration over Schleicher & Schuell GF 3362 glass fibre filters [previously soaked in a solution of 0.5% polyethylenimine for at least 1 h]. Filters were then washed with four times with 4 mL of cold Tris-HCl buffer (50 mM, pH 7.4). Following addition of scintillation cocktail, the samples were allowed to equilibrate overnight. The amount of bound radioactivity was determined by liquid scintillation spectrometry using a Wallac Winspectral 1414 liquid scintillation counter. Protein concentrations were determined by the method of Lowry et al. (1951; J. Biol. Chem, 193, 265.).

T1 sequence (Q60492 whole entry): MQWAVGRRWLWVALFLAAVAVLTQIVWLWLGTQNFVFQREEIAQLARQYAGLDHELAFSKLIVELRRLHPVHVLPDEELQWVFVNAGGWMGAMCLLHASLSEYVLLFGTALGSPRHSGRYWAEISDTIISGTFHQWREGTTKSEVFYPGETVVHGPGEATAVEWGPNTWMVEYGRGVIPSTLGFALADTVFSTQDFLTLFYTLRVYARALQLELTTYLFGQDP

SMILES | inhibition at 0.1 µM (Sigma-1 receptor) | melting point
O[C@@H]1CN(Cc2ccccc2)C[C@H]1N1CCN(c2ccccc2)CC1 [Example 18, (3,4-trans)-1-benzyl-4-(4-phenylpiperazin-1-yl)pyrrolidine-3-ol] | 90.9% | 120 to 123 °C
O[C@@H]1CN(Cc2ccccc2)C[C@H]1N1CCN(Cc2ccccc2)CC1 [Example 17, (3,4-trans)-1-benzyl-4-(4-benzylpiperazin-1-yl)pyrrolidine-3-ol] | 82.1% | 102 to 103 °C
